Reference: patent publication US20110065796A1 (SHIRE LLC, priority 2009, published 2011)

What was measured:
[1] = Prodrug stability in freshly withdrawn porcine intestinal fluid; type: in vitro ADME; settings: for Prodrug remaining at 3 h: porcine intestinal fluid pH 6.8, 37° C., in % (unit assumed)
Text: Many of the peptidases in the intestinal lumen may not be present in the USP simulated intestinal fluid preparations previously described. […] The prodrugs evaluated were selected on the basis of adequate pharmacokinetics (see Example 8).

[2] = Prodrug stability in simulated gastric fluid; settings: 37° C., pH 1.1, HPLC
Experimental: (§1) The remaining concentrations of the prodrugs were then assayed by H PLC.

[3] = Prodrug stability in simulated intestinal fluid; settings: 37° C., pH 6.8, HPLC
Experimental: as §1

CNCC(=O)N[C@@H](CCC(=O)NC(=N)NC(=O)Cc1c(Cl)cccc1Cl)C(=O)O [Compound 7, Guanfacine ((S)-γ-Glutamate-Sarcocine) Amide]
Prodrug remaining at 3 h [1]: 48.9 ± 0.8
% prodrug remaining following incubation for 1 h in simulated gastric fluid pH 1.1 [2]: 79%
% prodrug remaining following incubation for 2 h in simulated intestinal fluid pH 6.8 [3]: 66%

CC(C)[C@H](N)C(=O)NCCOC(=O)NC(=N)NC(=O)Cc1c(Cl)cccc1Cl [Compound 26, Guanfacine (Ethanolamine-(S)-Valine) Carbamate]
stability in porcine intestinal fluid (in words) ([1]; porcine intestinal fluid): very unstable
Prodrug remaining at 3 h [1]: 13.8 ± 0.6
% prodrug remaining following incubation for 1 h in simulated gastric fluid pH 1.1 [2]: 97%
% prodrug remaining following incubation for 2 h in simulated intestinal fluid pH 6.8 [3]: 91%

N=C(NC(=O)CC[C@H](NC(=O)[C@H](N)CCC(N)=O)C(=O)O)NC(=O)Cc1c(Cl)cccc1Cl [Compound 46, Guanfacine ((S)-γ-Glutamate-(R)-Glutamine) Amide]
% prodrug remaining following incubation for 1 h in simulated gastric fluid pH 1.1 [2]: 61%
% prodrug remaining following incubation for 2 h in simulated intestinal fluid pH 6.8 [3]: 81%

N=C(NC(=O)CC[C@H](NC(=O)[C@H](N)CO)C(=O)O)NC(=O)Cc1c(Cl)cccc1Cl [Compound 47, Guanfacine ((S)-γ-Glutamate-(R)-Serine) Amide]
% prodrug remaining following incubation for 1 h in simulated gastric fluid pH 1.1 [2]: 72%
% prodrug remaining following incubation for 2 h in simulated intestinal fluid pH 6.8 [3]: 89%

N=C(NC(=O)Cc1c(Cl)cccc1Cl)NC(=O)OCCNC(=O)CN [Compound 49, Guanfacine (Ethanolamine-Glycine) Carbamate]
% prodrug remaining following incubation for 1 h in simulated gastric fluid pH 1.1 [2]: 87%
% prodrug remaining following incubation for 2 h in simulated intestinal fluid pH 6.8 [3]: 101%

CCC(C)[C@@H](N)C(=O)NCCCC(=O)NC(=N)NC(=O)Cc1c(Cl)cccc1Cl (stereo partly drawn) [Compound 50, Guanfacine (GABA-(R)-Isoleucine) Amide]
% prodrug remaining following incubation for 1 h in simulated gastric fluid pH 1.1 [2]: 85%
% prodrug remaining following incubation for 2 h in simulated intestinal fluid pH 6.8 [3]: 81%

C[C@H]1N=C(NC(=O)Cc2c(Cl)cccc2Cl)NC1=O [Compound 51, Guanfacine-(R)-Alanine Cyclic Adduct]
% prodrug remaining following incubation for 1 h in simulated gastric fluid pH 1.1 [2]: 80%
% prodrug remaining following incubation for 2 h in simulated intestinal fluid pH 6.8 [3]: 103%

N=C(NC(=O)Cc1c(Cl)cccc1Cl)NC(=O)Nc1ccc(C(=O)O)cc1 [Compound 53, Guanfacine PABA Urea]
% prodrug remaining following incubation for 1 h in simulated gastric fluid pH 1.1 [2]: 101%
% prodrug remaining following incubation for 2 h in simulated intestinal fluid pH 6.8 [3]: 100%

CC(C)[C@@H](N)C(=O)N[C@@H](C(=O)NC(=N)NC(=O)Cc1c(Cl)cccc1Cl)C(C)C [Compound 54, Guanfacine ((R)-Valine-(R)-Valine) Amide]
% prodrug remaining following incubation for 1 h in simulated gastric fluid pH 1.1 [2]: 73%
% prodrug remaining following incubation for 2 h in simulated intestinal fluid pH 6.8 [3]: 66%

CC(C)[C@@H](NC(=O)c1ccc(N)cc1)C(=O)NC(=N)NC(=O)Cc1c(Cl)cccc1Cl [Compound 55, Guanfacine ((R)-Valine-PABA) Amide]
% prodrug remaining following incubation for 1 h in simulated gastric fluid pH 1.1 [2]: 65%
% prodrug remaining following incubation for 2 h in simulated intestinal fluid pH 6.8 [3]: 91%

CC(C)[C@H](N)C(=O)NCCCC(=O)NC(=N)NC(=O)Cc1c(Cl)cccc1Cl [Compound 56, Guanfacine (GABA-(S)-Valine) Amide]
% prodrug remaining following incubation for 1 h in simulated gastric fluid pH 1.1 [2]: 70%
% prodrug remaining following incubation for 2 h in simulated intestinal fluid pH 6.8 [3]: 111%

N=C(NC(=O)CCCNC(=O)CC[C@H](N)C(=O)O)NC(=O)Cc1c(Cl)cccc1Cl [Compound 57, Guanfacine (GABA-(S)-γ-Glutamate) Amide]
% prodrug remaining following incubation for 1 h in simulated gastric fluid pH 1.1 [2]: 81%
% prodrug remaining following incubation for 2 h in simulated intestinal fluid pH 6.8 [3]: 106%

CC[C@H](C)[C@H](N)C(=O)NCCOC(=O)NC(=N)NC(=O)Cc1c(Cl)cccc1Cl [Compound 59, Guanfacine (Ethanolamine-(S)-Isoleucine) Carbamate]
% prodrug remaining following incubation for 1 h in simulated gastric fluid pH 1.1 [2]: 92%
% prodrug remaining following incubation for 2 h in simulated intestinal fluid pH 6.8 [3]: 100%

N=C(NC(=O)CC[C@H](NC(=O)c1ccc(C(=O)O)cc1)C(=O)O)NC(=O)Cc1c(Cl)cccc1Cl [Compound 60, Guanfacine ((S)-γ-Glutamate-Terephthalic acid) Amide]
% prodrug remaining following incubation for 1 h in simulated gastric fluid pH 1.1 [2]: 81%
% prodrug remaining following incubation for 2 h in simulated intestinal fluid pH 6.8 [3]: 97%

N=C(NC(=O)Cc1c(Cl)cccc1Cl)NC(=O)OC[C@H](NC(=O)CCN)C(=O)O [Compound 64, Guanfacine ((S)-Serine-β-Alanine) Carbamate]
% prodrug remaining following incubation for 1 h in simulated gastric fluid pH 1.1 [2]: 88%
% prodrug remaining following incubation for 2 h in simulated intestinal fluid pH 6.8 [3]: 93%

N=C(NC(=O)Cc1c(Cl)cccc1Cl)NC(=O)OCC[C@H](N)C(=O)O [Compound 65, Guafacine (S)-Homoserine Carbamate]
% prodrug remaining following incubation for 1 h in simulated gastric fluid pH 1.1 [2]: 90%
% prodrug remaining following incubation for 2 h in simulated intestinal fluid pH 6.8 [3]: 99%

CNCC(=O)N[C@@H](CCOC(=O)NC(=N)NC(=O)Cc1c(Cl)cccc1Cl)C(=O)O [Compound 66, Guanfacine ((S)-Homoserine-Sarcosine) Carbamate]
% prodrug remaining following incubation for 1 h in simulated gastric fluid pH 1.1 [2]: 86%
% prodrug remaining following incubation for 2 h in simulated intestinal fluid pH 6.8 [3]: 101%

N=C(NC(=O)Cc1c(Cl)cccc1Cl)NC(=O)OCC[C@H](NC(=O)CCN)C(=O)O [Compound 67, Guanfacine ((S)- Homoserine-β-Alanine) Carbamate]
% prodrug remaining following incubation for 1 h in simulated gastric fluid pH 1.1 [2]: 99%
% prodrug remaining following incubation for 2 h in simulated intestinal fluid pH 6.8 [3]: 97%

CC(C)(COC(=O)NC(=N)NC(=O)Cc1c(Cl)cccc1Cl)[C@@H](O)C(=O)NCCC(=O)O [Compound 68, Guanfacine Pantothenic acid Carbamate]
% prodrug remaining following incubation for 1 h in simulated gastric fluid pH 1.1 [2]: 86%
% prodrug remaining following incubation for 2 h in simulated intestinal fluid pH 6.8 [3]: 75%

CC(C)(CO)[C@@H](O)C(=O)NCCCOC(=O)NC(=N)NC(=O)Cc1c(Cl)cccc1Cl [Compound 69, Guanfacine Panthenol Carbamate]
% prodrug remaining following incubation for 1 h in simulated gastric fluid pH 1.1 [2]: 85%
% prodrug remaining following incubation for 2 h in simulated intestinal fluid pH 6.8 [3]: 96%

N=C(NC(=O)CC[C@H](NC(=O)c1ccc(N)cc1)C(=O)O)NC(=O)Cc1c(Cl)cccc1Cl [Compound 70, Guanfacine ((S)-γ-Glutamate-PABA) Amide]
% prodrug remaining following incubation for 1 h in simulated gastric fluid pH 1.1 [2]: 64%
% prodrug remaining following incubation for 2 h in simulated intestinal fluid pH 6.8 [3]: 93%

CNCC(=O)NCCOC(=O)NC(=N)NC(=O)Cc1c(Cl)cccc1Cl [Compound 71, Guanfacine (Ethanolamine-Sarcosine) Carbamate]
% prodrug remaining following incubation for 1 h in simulated gastric fluid pH 1.1 [2]: 91%
% prodrug remaining following incubation for 2 h in simulated intestinal fluid pH 6.8 [3]: 89%
